# Patent US5607969A, “L-DOPA ethyl ester to treat Parkinson's disease” (priority 1995, dated 1997)
# Entries after “also recorded” stand apart in the source; their conditions may differ.
# Tests used:
# [1] = tested on: fluctuating Parkinsonian patients; test: Second oral clinical trial: safety, tolerability and preliminary efficacy of L-DOPA ethyl ester, sub-chronic; format: in vivo, human
# Method: A clinical trial was carried out to determine the safety, tolerability, and preliminary efficacy of L-DOPA ethyl ester administered sub-chronically via the oral route in eight fluctuating Parkinsonian patients.
# In the second clinical trial, all patients filled out daily diary cards for at least 10 days prior to study entry to ensure their reliability. Upon study entry they were instructed to continue filling out daily diary cards for the 10-day period during which they were taking L-DOPA ethyl ester.
# Three out of the patients' normal daily doses with levodopa/carbidopa or levodopa/benserazide were switched to L-DOPA ethyl ester, each day for ten days. At the beginning and end of this ten-day period, a physical exam was performed and blood chemistry analyzed.
# [2] = tested on: fluctuating Parkinsonian patients; test: First oral clinical trial in fluctuating Parkinsonian patients; format: in vivo, human; conditions: four occasions over two days, five patients
# Method: This was the second in a series of oral clinical trials carried out with L-DOPA ethyl ester. The first clinical trial was carried out in five fluctuating Parkinsonian patients in the hospital setting where L-DOPA ethyl ester was administered on four occasions over a two day period.
# [3] = Bio-availability of L-DOPA ethyl ester in rats (subcutaneous), plasma L-DOPA profile; format: in vivo; conditions: s.c.
# Method: Three subgroups of rats, each comprising four males and four females, were injected subcutaneously with 100 mg./kg. L-DOPA equivalents as L-DOPA ethyl ester. The L-DOPA ethyl ester was prepared as described in Example 1 and formulated as described in Example 4. After injection, blood samples were taken from the tail at the times shown below and analyzed for L-DOPA as described in T. Wikberg, J. of Pharmaceutical & Biomedical Analysis 9: 167-176 (1991). […] The L-DOPA plasma profile following injection is shown below: […]
# [4] = tested on: Parkinson's Disease patients having response fluctuations; test: Clinical trial: administration of L-DOPA ethyl ester by injection (UPDRS on/off phases); format: in vivo, human
# Method: A clinical trial was undertaken to assess the clinical efficacy of L-DOPA ethyl ester administered by sub-cutaneous injection.
# The solution for injection L-DOPA ethyl ester 100mg, HCl to pH 4.0 and purified water as the vehicle.
# Ten Parkinson's Disease patients having response fluctuations were hospitalized. These patients are typified in have "on" phases fluctuating with incapacitating "off" phases. Patients were administered s.c. or i.m. L-DOPA ethyl ester at escalating doses of 150-300mg in 2ml vehicle, twice daily, one hour after an oral capsule containing 25mg of carbidopa. "Off" and "on" UPDRS (Unified Parkinson's Disease Rating Scale) profiles, time to "on" phase and duration of "on" phase were measured. Blood samples were taken every 10 minutes post-L-DOPA ethyl ester administration for measurement of levodopa levels.
# [5] = Oral administration of L-DOPA ethyl ester to volunteers, plasma L-DOPA levels; format: in vivo, human; conditions: humans
# Method: Human volunteers orally received 100 mg equivalents of L-DOPA as L-DOPA ethyl ester prepared according to Example 1 and formulated as described in Example 5. Plasma levels of L-DOPA following administration of representative patients are listed below in Table 5.
# [6] = Stability of L-DOPA ethyl ester prepared according to Examples 1 and 2 (Table 2); format: physicochemical; set-up: key to COLOR: A: White with gray particles; B: Cream; C: WhiteYellow; D: Yellow; E: Dark Yellow; F: Gray; IMPURITIES: unit not given beside the values; conditions: for COLOR / IMPURITIES: listed as Example 1
# From the text: | STABILITY OF L-DOPA ESTER PREPARED
# Parkinsonian patients = conditions: cited from earlier work
# [7] = cited from earlier work
# [8] = s.c./i.m. injection, dose dependence
smiles,measurement,setting,value
CCOC(=O)[C@@H](N)Cc1ccc(O)c(O)c1 [L-DOPA ethyl ester],serum chemistry,[1]; following ten-day treatment,no abnormalities or changes for any patient
same,duration of the anti-Parkinsonian effect,[1]; ten days,marked beneficial effect
same,latency to initiation of drug action,[1]; ten days,marked beneficial effect
same,variability of the response of the patient to the drug's effect,[1]; ten days,significant decrease
same,safety and tolerability,"[1]; ten days, three times per day","well tolerated by all individuals in the trial; also recorded: safe, well tolerated"
same,unpredictability of drug response,"[1]; ten days, three times per day, potential advantage",reducing the unpredictability of drug response
same,patient complaints / adverse reaction,"[1]; ten-day treatment, eight patients",no patient complaints nor any reported adverse reaction
same,adverse reactions,[2],No adverse reactions were recorded in any of the patients
same,conversion to L-DOPA,[3],fully converted to L-DOPA
same,L-DOPA ethyl ester detected in plasma samples,[3]; 100 mg./kg. L-DOPA equivalents,No L-DOPA ethyl ester was detected in any of the plasma samples
same,kinetic profile,[3]; compared with L-DOPA,kinetic profile similar to L-DOPA
same,"MEAN TIME TO ""ON"" (RANGE)","[4]; 150 mg i.m., 2 injections, range (30-45)",37.5 min
same,"MEAN DURATION OF ""ON"" (RANGE)","[4]; 150 mg i.m., 2 injections, range (60-70)",65 min
same,"MEAN DURATION OF ""ON"" (RANGE)","[4]; 150 mg s.c., 6 injections, range (10-55)",31.4 min
same,"MEAN TIME TO ""ON"" (RANGE)","[4]; 150 mg s.c., 6 injections, range (25-90)",54 min
same,"MEAN TIME TO ""ON"" (RANGE)","[4]; 200 mg i.m., 5 injections, range (20-40)",29.2 min
same,"MEAN DURATION OF ""ON"" (RANGE)","[4]; 200 mg i.m., 5 injections, range (28-175)",104.5 min
same,"MEAN TIME TO ""ON"" (RANGE)","[4]; 200 mg s.c., 19 injections, range (10-120)",38.6 min
same,"MEAN DURATION OF ""ON"" (RANGE)","[4]; 200 mg s.c., 19 injections, range (10-235)",126.9 min
same,"MEAN TIME TO ""ON"" (RANGE)","[4]; 250 mg i.m., 5 injections, range (10-35)",27.5 min
same,"MEAN DURATION OF ""ON"" (RANGE)","[4]; 250 mg i.m., 5 injections, range (75-170)",133.3 min
same,"MEAN TIME TO ""ON"" (RANGE)","[4]; 250 mg s.c., 8 injections, range (20-40)",27.1 min
same,"MEAN DURATION OF ""ON"" (RANGE)","[4]; 250 mg s.c., 8 injections, range (60-210)",155 min
same,"MEAN TIME TO ""ON"" (RANGE)","[4]; 300 mg i.m., 7 injections, range (5-35)",18.3 min
same,"MEAN DURATION OF ""ON"" (RANGE)","[4]; 300 mg i.m., 7 injections, range (135-265)",196.7 min
same,"MEAN TIME TO ""ON"" (RANGE)","[4]; 300 mg s.c., 6 injections, range (5-37)",22.8 min
same,"MEAN DURATION OF ""ON"" (RANGE)","[4]; 300 mg s.c., 6 injections, range (80-315)",193 min
same,"patients turned to an ""on"" phase",[4]; s.c. LDEE injection,"All patients were turned to an ""on"" phase"
same,local or general side effects,[4]; s.c./i.m. injection,No local or general side effects were observed
same,plasma levodopa elevations,[4]; s.c./i.m. injection,rapid and sustained plasma levodopa elevations
same,"duration of ""on"" phases",[4]; [8],increased in a dose-dependant manner
same,"latency of onset of ""on"" phases",[4]; [8],decreased
same,conversion of L-DOPA ethyl ester to L-DOPA,[5],rapid conversion of L-DOPA ethyl ester to L-DOPA in humans
same,COLOR,"[6]; 25° C. -N2, 1 m",A
same,IMPURITIES,"[6]; 25° C. -N2, 1 m",1.2
same,COLOR,"[6]; 25° C. -N2, 2 m",B
same,IMPURITIES,"[6]; 25° C. -N2, 2 m",0.7
same,COLOR,"[6]; 25° C. -N2, 4 m",C
same,IMPURITIES,"[6]; 25° C. -N2, 4 m",0.6
same,COLOR,"[6]; 40° C., 1 m",A
same,IMPURITIES,"[6]; 40° C., 1 m",2.4
same,COLOR,"[6]; 40° C., 2 m",B
same,IMPURITIES,"[6]; 40° C., 2 m",0.7
same,ASSAY,"[6]; 40° C., 4 m, 172800 min, listed as Example 1, 172800 min",99.7%
same,COLOR,"[6]; 40° C., 4 m",C
same,IMPURITIES,"[6]; 40° C., 4 m",0.5
same,remaining at 720 h,"[6]; storage, 25° C. -N2, 1 m",98%
same,remaining at 1440 h,"[6]; storage, 25° C. -N2, 2 m",99.4%
same,remaining at 2880 h,"[6]; storage, 25° C. -N2, 4 m",99.5%
same,remaining at 720 h,"[6]; storage, 40° C., 1 m",98.9%
same,remaining at 1440 h,"[6]; storage, 40° C., 2 m",99.6%
N[C@@H](Cc1ccc(O)c(O)c1)C(=O)O [L-DOPA],"initial period of satisfactory, smooth and stable clinical benefit","Parkinsonian patients; L-DOPA therapy, on the average",2-5 years
same,bioavailability,Parkinsonian patients; in vivo,poor bioavailability
same,half-life in vivo,Parkinsonian patients; in vivo,short half-life in vivo
same,"mean duration of ""on"" phase","[4]; levodopa, prior to administration of LDEE",approximately 90 minutes
same,"mean latency to an ""on"" phase","[4]; post-administration of levodopa, prior to administration of LDEE",45 to 75 min
same,solubility,[7],very poor solubility
